Test results from PubChem BioAssay (NCI).
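In this assay, cells in 96-well plates receive the compound at five concentrations for 48 hours. Endpoints are linearly interpolated between the surrounding concentrations. GI50 is the concentration that inhibits growth by half. TGI marks complete inhibition of growth.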

Key:
Assay in all cases: DTP human tumour cell line panel, 48 h
[1] = tested on: SF-268 CNS
[2] = tested on: MDA-MB-435
[3] = tested on: SNB-75 CNS
[4] = tested on: UO-31 renal
[5] = tested on: A549 NSCLC
[6] = tested on: MDA-MB-231 breast
[7] = tested on: MOLT-4 leukemia
[8] = tested on: RPMI-8226 leukemia
[9] = tested on: IGROV1 ovarian
[10] = tested on: HT29 colon

Structure (SMILES) | GI50 [1] | TGI [1] | GI50 [2] | TGI [2] | GI50 [3] | TGI [3] | GI50 [4] | TGI [4] | GI50 [5] | TGI [5] | GI50 [6] | TGI [6] | GI50 [7] | TGI [7] | GI50 [8] | TGI [8] | GI50 [9] | TGI [9] | TGI [10] | GI50 [10]
O=C(/C=C/C12c3ccccc3C(c3ccccc31)C1C(=O)NC(=O)C12)c1ccc(Cl)cc1 (stereo not given) | 1.99 µM | 5.31 µM | 1.68 µM | 3.5 µM | 1.1 µM | 2.32 µM | 1.28 µM | 2.56 µM | 2.4 µM | 10.1 µM | 1.88 µM | 4.3 µM | 1.7 µM | 15.5 µM | 1.66 µM | 4.5 µM | 1.67 µM | 3.4 µM |  | 
C[C@]12CCNC(=O)C=C1CC[C@@H]1C2CC[C@@]2(C)C1CC[C@@H]2OC(=O)COc1ccc(N(CCCl)CCCl)cc1 (stereo not given in full) |  | 23.8 µM |  | 74.5 µM |  | 47.2 µM |  | 18.9 µM |  | 23 µM |  | 34.8 µM |  | > 22.2 µM |  | 47.6 µM |  | 33.4 µM | 27.5 µM | 
CCOC(=O)c1ccc2c(c1)[n+](=O)c(C(C)=O)c(C(F)(F)F)n2[O-] | 1.49 µM | 2.93 µM | 1.61 µM | 3.21 µM | 1.55 µM | 3 µM | 1.49 µM | 3.15 µM | 2.04 µM | 4.39 µM | 1.75 µM | 3.62 µM | 1.31 µM | 3.97 µM | 1.45 µM | 4 µM | 1.46 µM | 3.42 µM | 3.11 µM | 1.58 µM
Nc1ccccc1C#C/C=C\C#Cc1c(F)c(F)c(F)c(F)c1F | 14.1 µM | 50.9 µM | 14.9 µM | 31.7 µM | 41.8 µM | > 100 µM | 14.6 µM | 28 µM | 11.6 µM | 25.5 µM | 2.76 µM | 16.7 µM | 1.76 µM | 34.8 µM | 1.25 µM | 21.7 µM | 10.9 µM | 24.5 µM | 50.7 µM | 19.7 µM
COc1cccc(C2C3=C(COC3=O)N(CCO)c3cc4c(cc32)OCO4)c1 (stereo not given) | 1.53 µM | 49.2 µM | 0.101 µM | 0.356 µM | 0.151 µM | 1.07 µM | 0.297 µM | > 50 µM | 0.631 µM | > 50 µM | 1.28 µM | 45.8 µM | 0.315 µM | > 16.7 µM | 0.706 µM | > 50 µM | 0.154 µM | 1.64 µM | 1.58 µM | 0.154 µM
Cc1ccc(-c2nc([P+](c3ccccc3)(c3ccccc3)c3ccccc3)c(Nc3ccccc3)o2)cc1 | 1.15 µM | 2.53 µM | 0.457 µM | 1.63 µM | 1.23 µM | 2.54 µM | 0.421 µM | 1.73 µM | 1.15 µM | 2.87 µM | 0.728 µM | 2.09 µM | 0.477 µM | 2.06 µM | 0.227 µM | 0.739 µM | 0.708 µM | 2.08 µM | 1.45 µM | 0.344 µM
Cc1ccc(NCCN(C)C)c2c(=O)c3ccccc3sc12 | 1.97 µM | 4.74 µM | 1.71 µM | 3.47 µM | 1.49 µM | 3.08 µM | 1.28 µM | 2.85 µM | 1.35 µM | 3.4 µM | 1.69 µM | 3.73 µM | 1.13 µM | 4.33 µM | 1.67 µM | 4.21 µM | 1.5 µM | 5.05 µM | 3.77 µM | 1.62 µM
Cc1c(C(N)=O)sc2c1c(=O)n(Cc1ccccc1)c1nnc(-c3ccc(Br)cc3)n21 | 1.4 µM | 13.4 µM | 3.49 µM | 20.7 µM | 4.44 µM | 20.9 µM | 1.4 µM | 11.7 µM | 2.51 µM | 13.1 µM | 0.829 µM | 18.6 µM | 1.64 µM | 17.3 µM | 4.72 µM | 47.7 µM | 2.15 µM | 19.2 µM | 13.4 µM | 2.32 µM
CN1CCN(Cc2ccc3c(NNC(=O)c4ccccc4)nc4cc(F)ccc4n23)CC1 | 0.454 µM | > 100 µM | 0.599 µM | > 66 µM | 0.436 µM | > 25.8 µM | 0.0681 µM | 3.79 µM | 0.473 µM | 21.8 µM | 0.5 µM | 19.2 µM | 0.291 µM | 20.2 µM | 0.574 µM | 18.1 µM | 0.487 µM | 49.2 µM | > 49 µM | 0.587 µM
Clc1ccccc1C(Nc1ncccn1)Nc1ncccn1 |  | > 100 µM |  | > 100 µM |  | > 100 µM |  | > 100 µM |  | > 100 µM |  | > 100 µM |  | > 100 µM |  | > 100 µM |  | > 100 µM | > 100 µM | 
O=c1cc(-c2ccccc2)oc2cc(OC/C(=N/O)c3ccc(F)cc3)ccc12 | 19.7 µM | > 50 µM | 13.8 µM | > 50 µM | > 50 µM | > 50 µM | 14.7 µM | > 50 µM | 20.1 µM | > 50 µM | 16.3 µM | > 50 µM | > 50 µM | > 50 µM | 15.9 µM | > 50 µM | 19.6 µM | > 50 µM | > 50 µM | 29.6 µM
NC(=S)N=Nc1c(O)c2ccccc2c2ccccc12 | 10.2 µM | 35.7 µM | 1.85 µM | 3.45 µM | 1.34 µM | 3.24 µM | 3.26 µM | > 76.1 µM | 3.44 µM | 12.1 µM | 16.1 µM | 60.2 µM | 33.7 µM | > 73.5 µM | 9.73 µM | > 100 µM | 27.2 µM | > 100 µM | > 100 µM | 19.3 µM
CCOC(=O)/C=C/C(=O)[C@H](CC(C)C)NC(=O)[C@H](Cc1ccccc1)NC(=O)OCc1ccccc1 | 3.3 µM | 13.3 µM | 6.58 µM | 20.1 µM | 12.6 µM | 25.4 µM | 1.78 µM | 3.66 µM | 20.7 µM | 39.6 µM | 2.92 µM | 6.35 µM | 2.42 µM | 9.25 µM | 2.13 µM | 5.97 µM | 2.32 µM | 4.89 µM | 38.6 µM | 5.44 µM
C[C@@H]1COCCN1c1cc(C2([S@@](C)(=N)=O)CC2)nc(-c2ccnc3[nH]ccc23)n1 | 9.66 µM | > 100 µM | 5.27 µM | > 100 µM | 2.3 µM | 28.6 µM | 4 µM | 50 µM | 4.27 µM | > 100 µM | 8.18 µM | > 100 µM | 3.99 µM | 62.6 µM | 6.21 µM | > 60.9 µM | 5.11 µM | > 71.1 µM | > 100 µM | 6.41 µM
O=C(Nc1ccccc1O)c1ccc(NS(=O)(=O)c2cccc3cccnc23)cc1 | 1.54 µM | 8.18 µM | 0.806 µM | 4.86 µM | 0.511 µM | 8.03 µM | 0.73 µM | 4.14 µM | 2.03 µM | 9.02 µM | 2.17 µM | 7.72 µM | 1.21 µM | > 25 µM | 0.464 µM | > 9.66 µM | 3.06 µM | 9.95 µM | > 16 µM | 1.18 µM
O=C(C[P+](c1ccccc1)(c1ccccc1)c1ccccc1)C[P+](c1ccccc1)(c1ccccc1)c1ccccc1 | 0.591 µM | 1.95 µM | 0.233 µM | 0.666 µM | 0.254 µM | 1.44 µM | 0.218 µM | 0.855 µM | 0.81 µM | 3.04 µM | 0.32 µM | 1.4 µM | 0.292 µM | 4.08 µM | 0.271 µM | 1.81 µM | 0.774 µM | 2.56 µM | 0.734 µM | 0.285 µM
N#Cc1c(N)nc(NCc2ccccc2)c(C#N)c1-c1ccc(Cl)cc1Cl |  | 1.18 µM | > 46.8 µM | > 100 µM | 22.9 µM | 99 µM | > 100 µM | > 100 µM | > 100 µM | > 100 µM | > 100 µM | > 100 µM | 34.6 µM | > 100 µM | 33.5 µM | > 100 µM | 40.5 µM | > 100 µM | > 100 µM | > 100 µM
CC1=C[C@H]2C[C@H](C)[C@H]3CC[C@H](C)[C@]4(C1)C(=O)C(O)=C(C)C(=O)[C@@]324 | > 100 µM | > 100 µM | 41.1 µM | > 100 µM | 46.7 µM | > 100 µM | 29.8 µM | > 100 µM | 28.5 µM | > 100 µM | 20.8 µM | 65.7 µM | 16.3 µM | 37.4 µM | 13.1 µM | 32.4 µM | 29.6 µM | > 100 µM | > 100 µM | 27.8 µM
CC1=C(C)C2(O)C(=C(C)C1=O)/C(=C(/O)c1ccccc1)c1nc3ccccc3n12 (stereo not given) | 35.7 µM | > 100 µM | 17.3 µM | 35.1 µM | 11.7 µM | 32.1 µM | 25.6 µM | > 100 µM | 19.3 µM | 44.4 µM | 15.4 µM | 30 µM | 24.6 µM | 72.3 µM | 13.2 µM | 33.2 µM | 12.3 µM | 30.4 µM | > 100 µM | 32.5 µM
COc1ccc(C(CC(=O)c2ccccc2)C(C(=O)c2ccccc2)C(c2ccc(OC)cc2)C2C(=O)NC(=S)NC2=O)cc1 (stereo not given) | 9.99 µM | 55.5 µM | 10.6 µM | 35.3 µM | 31.2 µM | > 100 µM | 7.32 µM | 26.1 µM | 8.96 µM | 75.7 µM | 2.16 µM | 10.6 µM | 11.4 µM | > 100 µM | 25.6 µM | > 100 µM | 8.67 µM | 48.5 µM | > 100 µM | 21.3 µM
COc1cccc(/C(C)=N/NC(=O)CSc2nc3ccccc3c(=O)n2CCc2ccc(S(N)(=O)=O)cc2)c1 | 2.68 µM | 7.32 µM | 3.18 µM | 12.6 µM | 5.86 µM | 26.9 µM | 2.11 µM | 6.48 µM | 2.01 µM | 3.93 µM | 2.23 µM | 5.06 µM | 6.5 µM | 40.2 µM | 0.943 µM | > 100 µM | 5.09 µM | 24.4 µM | 5.31 µM | 2.36 µM
Cc1ccc(-c2nc(-c3cn(C)c4ncccc34)cs2)cc1 | 7.83 µM | 39.2 µM | 0.402 µM | 2.88 µM | 4.16 µM | 22.4 µM | 8.96 µM | 40.5 µM | 5.62 µM | 21.3 µM | 4.88 µM | 21.5 µM | 4.24 µM | 30.3 µM | 7.37 µM | > 69.8 µM | 7.26 µM | 32.2 µM | 8.51 µM | 2.32 µM
CN(C)c1ccc(C(c2ccc(Cl)cc2)c2ccc(N(C)C)cc2)cc1 |  | > 100 µM |  | > 100 µM |  | > 100 µM |  | > 100 µM |  | > 100 µM |  | > 100 µM |  | > 100 µM |  | > 100 µM |  | > 100 µM | > 100 µM | 
c1ccc([As]=[As]c2ccccc2)cc1 (stereo not given) | 0.886 µM | 2.45 µM | 1.27 µM | 2.72 µM | 0.698 µM | 2.65 µM | 0.973 µM | 2.39 µM | 1.87 µM | 3.9 µM | 0.88 µM | 2.21 µM | 1.01 µM | 4.17 µM | 0.543 µM | 2.97 µM | 0.666 µM | 2.76 µM | 3.61 µM | 1.74 µM
O=C(CC(=O)c1cccc(Cl)c1)c1cccc(Cl)c1 | 2.76 µM | > 100 µM | 3.18 µM | > 100 µM | 3.09 µM | > 100 µM | 3.98 µM | > 100 µM | 4.68 µM | > 100 µM | 2.67 µM | > 100 µM | 2.08 µM | > 100 µM | 1.45 µM | > 100 µM | 2.63 µM | > 100 µM |  | 
